Measured values taken from patent publication US5439887A, “Peptide having antihypertensive activity free of vascoconstrictor activity” (Roussel-Uclaf, priority 1992, dated 1995).
Bridge positions count the residues as written; N and C are the ends. Peptide text beside a SMILES is read from it.

Molecular target: endothelin receptor
Assay: [125I]endothelin displacement from rat posterior cortex plus cerebellum membranes
Format: binding
Settings: displacement of [125I]endothelin, rat brain membranes, 25° C., 60 minutes
Method: A membrane preparation was made from rat posterior cortex plus cerebellum and the tissue was ground using a POLYTRON in 50 mM Tris buffer pH 7.4. After 30 minutes at 25° C. (water bath), the homogenate was centrifuged at 30,000 g for 15 minutes (2 centrifugations interspersed by taking up in Tris buffer pH 7.4).
The pellets were resuspended in an incubation buffer (25 mM Tris, pepstatin A 5 μg/ml, aprotinin 3 μg/ml, 0.1 mM PMSF, 3 mM EDTA, 1 mM EGTA pH 7.4).
2 ml aliquots were distributed in haemolysis tubes and [125 I]endothelin (approximately 50,000 dpm/tube) and the test product were added. The product was first tested at […] in triplicate. When the test product displaced by more than 50% the radioactivity specifically bound to the receptor, it was tested again in a series of 7 concentrations to determine the concentration which inhibited by 50% the radioactivity specifically bound to the receptor. The 50% inhibitory concentration was thereby determined.
Non-specific binding was determined by adding 10^-6 M endothelin (in triplicate). The preparation was incubated at 25° C. for 60 minutes, put back on a water bath at 0° C. for 5 minutes, filtered off under reduced pressure and rinsed with […] Tris buffer pH 7.4, and the radioactivity was counted in the presence of Triton scintillant. The result was expressed directly as a 50% inhibitory concentration (IC50), that is to say as a concentration of test product, expressed in nM, required to displace 50% of the specific radioactivity bound to the receptor under study.

Question: `CC[C@H](C)[C@H](NC(=O)[C@H](CC(=O)O)NC(=O)[C@H](CC(=O)O)NC(=O)[C@H](Cc1c[nH]cn1)NC(=O)[C@@H]1CSSC[C@H](N)C(=O)N[C@@H](CO)C(=O)N[C@H]2CSSC[C@H](NC(=O)[C@H](CCC(=O)O)NC(=O)[C@H](CCCCN)NC(=O)[C@H](CC(=O)O)NC(=O)[C@H](CC(C)C)NC(=O)[C@H](Cc3c[nH]c4ccccc34)NC(=O)[C@H](CO)NC(=O)[C@H](CC(N)=O)NC2=O)C(=O)N[C@@H](C(C)C)C(=O)N[C@@H](Cc2ccc(O)cc2)C(=O)N[C@@H](Cc2ccccc2)C(=O)N1)C(=O)N[C@H](C(=O)N[C@@H](Cc1c[nH]c2ccccc12)C(=O)O)[C@@H](C)CC` [Example 12] (H-CSCNSWLDKECVYFCHDDIIW-OH; disulfide 1-15, 3-11) was tested. Which IC50 did it give?
Answer: 6.8 nM

Question: With `CC[C@H](C)[C@H](NC(=O)[C@H](CC(=O)O)NC(=O)[C@H](CC(C)C)NC(=O)[C@H](Cc1c[nH]cn1)NC(=O)[C@@H]1CSSC[C@H](NC(=O)[C@@H](N)CO)C(=O)N[C@@H](Cc2ccccc2)C(=O)N[C@@H](CO)C(=O)N[C@@H](CO)C(=O)N[C@@H](CC(C)C)C(=O)N[C@@H](CC(=O)O)C(=O)N[C@@H](CCCCN)C(=O)N[C@@H](CCC(=O)O)C(=O)N[C@@H](C)C(=O)N[C@@H](C(C)C)C(=O)N[C@@H](Cc2ccc(O)cc2)C(=O)N[C@@H](Cc2ccccc2)C(=O)N1)C(=O)N[C@H](C(=O)N[C@@H](Cc1c[nH]c2ccccc12)C(=O)O)[C@@H](C)CC` [Example 15] (H-SCFSSLDKEAVYFCHLDIIW-OH; disulfide 2-14) as the compound, how does the IC50 read?
Answer: 17 nM

Question: Which IC50 does the source give for `CC[C@H](C)[C@H](NC(=O)[C@H](CC(=O)O)NC(=O)[C@H](CC(C)C)NC(=O)[C@H](Cc1c[nH]cn1)NC(=O)[C@@H]1CSSC[C@H](N)C(=O)N[C@@H](CO)C(=O)N[C@H]2CSSC[C@H](NC(=O)[C@H](CCC(=O)O)NC(=O)[C@H](CCCCN)NC(=O)[C@H](CC(=O)O)NC(=O)[C@H](CC(C)C)NC(=O)[C@H](CC(=O)O)NC(=O)[C@H](CO)NC(=O)[C@H](Cc3ccccc3)NC2=O)C(=O)N[C@@H](C(C)C)C(=O)N[C@@H](Cc2ccc(O)cc2)C(=O)N[C@@H](Cc2ccccc2)C(=O)N1)C(=O)N[C@H](C(=O)N[C@@H](Cc1c[nH]c2ccccc12)C(=O)O)[C@@H](C)CC` [Example 9] (H-CSCFSDLDKECVYFCHLDIIW-OH; disulfide 1-15, 3-11) here?
Answer: 2.4 nM

Question: `CC[C@H](C)[C@H](NC(=O)[C@H](CC(=O)O)NC(=O)[C@H](CC(C)C)NC(=O)[C@H](Cc1c[nH]cn1)NC(=O)[C@@H]1CSSC[C@H](NC(=O)[C@@H](N)CO)C(=O)N[C@@H](CC(N)=O)C(=O)N[C@@H](CO)C(=O)N[C@@H](Cc2c[nH]c3ccccc23)C(=O)N[C@@H](CC(C)C)C(=O)N[C@@H](CC(=O)O)C(=O)N[C@@H](CCCCN)C(=O)N[C@@H](CCC(=O)O)C(=O)N[C@@H](C)C(=O)N[C@@H](C(C)C)C(=O)N[C@@H](Cc2ccc(O)cc2)C(=O)N[C@@H](Cc2ccccc2)C(=O)N1)C(=O)N[C@H](C(=O)N[C@@H](Cc1c[nH]c2ccccc12)C(=O)O)[C@@H](C)CC` [Example 16] (H-SCNSWLDKEAVYFCHLDIIW-OH; disulfide 2-14) was tested. Which IC50 did it give?
Answer: 7.2 nM
